Source: patent US12521388B2, “Substituted dipyrido[1,2-a:1′,2′-d]pyrazines for treating viral infections” (Gilead Sciences, Inc., priority 2013, dated 2026)
Like-named read-outs stand apart in the source and are kept apart here.

Key:
HIV-IIIb = test: Antiviral assay in MT4 cells; type: cell-based; details: Human immunodeficiency virus 1, 120 h; MT4 cells infected with HIV-IIIb (0.004 m.o.i.), 5 days incubation, CellTiter-Glo; average over time; read-out: EC50 nM in MT-4
Method: (§1) For the antiviral assay utilizing MT4 cells, 0.4 μL of […] test concentration of 3-fold serially diluted compound in DMSO was added to 40 μL of cell growth medium (RPMI 1640, 10% FBS, 1% penicilline/Streptomycine, 1% L-Glutamine, 1% HEPES) in each well of 384-well assay plates (10 concentrations) in quidruplicate. 1 mL aliquots of 2×10^6 MT4 cells are pre-infected for 1 and 3 hours respectively at 37° C. with 25 μL (MT4) or of either cell growth medium (mock-infected) or a fresh 1:250 dilution of an HIV-IIIb concentrated ABI stock (0.004 m.o.i. for MT4 cells). Infected and uninfected cells are diluted in cell growth medium and 35 μL of 2000 (for MT4) cells is added to each well of the assay plates. Assay plates were then incubated in a 37° C. incubator. After 5 days of incubation, 25 μL of 2× concentrated CellTiter-Glo™ Reagent (catalog #G7573, Promega Biosciences, Inc., Madison, WI) was added to each well of the assay plate. Cell lysis was carried out by incubating at room temperature for 2-3 minutes, and then chemiluminescence was read using the Envision reader (PerkinElmer).

[1] = Cytotoxicity in MT4 cells (mock-infected) in the antiviral assay; type: cell-based; details: human
Method: as §1

[2] = MT4 cells (mock-infected), MT4 cells, 5 days incubation, CellTiter-Glo, average over time, read-out: CC50 nM in MT-4

SMILES	EC50 (HIV-IIIb)	CC50 at 5 days [1]	CC50 at 5 days [1, 2]
O=C(NCc1ccc(F)cc1F)c1cn2c(c(O)c1=O)C(=O)N1C3CCC1(CC3)C2 [Compound 3]	1.9 nM	26200 nM	–
O=C(NCc1ccc(F)cc1F)c1cn2c(c(O)c1=O)C(=O)N1C[C@H]3CC[C@@]1(C3)C2 [Compound 11]	3.2 nM	–	27900 nM
C[C@@H](NC(=O)c1cn2c(c(O)c1=O)C(=O)N1C3CCC1(CC3)C2)c1c(F)cc(F)cc1F [Compound 14]	6.2 nM	–	13200 nM
O=C(NCc1c(F)cc(F)cc1F)c1cn2c(c(O)c1=O)C(=O)N1C[C@H]3CCC[C@@]1(C3)C2 [Compound 7]	2.8 nM	–	13000 nM
O=C(NCc1ccc(F)cc1F)c1cn2c(c(O)c1=O)C(=O)N1C[C@H]3CC[C@@]1(CC3)C2 [Compound 2]	4.4 nM	–	53200 nM
O=C(NCc1c(F)cc(F)cc1F)c1cn2c(c(O)c1=O)C(=O)N1C[C@H]3CC[C@@]1(C3)C2 [Compound 12]	3.2 nM	–	53200 nM
O=C(NCc1ccc(F)cc1F)c1cn2c(c(O)c1=O)C(=O)N1C[C@H]3C[C@]1(C2)C3 [Compound 1]	3.5 nM	–	49900 nM

The next lines start with results.

EC50 (HIV-IIIb)	SMILES	CC50 at 5 days [1]	CC50 at 5 days [1, 2]
2.3 nM	O=C(NCc1c(F)cc(F)cc1F)c1cn2c(c(O)c1=O)C(=O)N1C3CCC1(CC3)C2 [Compound 15]	–	24000 nM
1.6 nM	O=C(NCc1ccc(F)cc1F)c1cn2c(c(O)c1=O)C(=O)N1C[C@@H]3CCC[C@]1(C3)C2 [Compound 4]	–	11000 nM
2.6 nM	O=C(NCc1ccc(F)cc1F)c1cn2c(c(O)c1=O)C(=O)N1C[C@H]3CCC[C@@]1(C3)C2 [Compound 6]	–	9660 nM
1.7 nM	O=C(NCc1c(F)cc(F)cc1F)c1cn2c(c(O)c1=O)C(=O)N1C[C@@H]3CC[C@]1(C3)C2 [Compound 13]	–	24300 nM
2.3 nM	O=C(NCc1ccc(F)cc1F)c1cn2c(c(O)c1=O)C(=O)N1C[C@@H]3CC[C@]1(C3)C2 [Compound 10, (3R,12aS)—N-(2,4-difluorobenzyl)-7-hydroxy-6,8-dioxo-2,3,4,6,8,12-hexahydro-1H-3,12a-methanodipyrido[1,2-a:1′,2′-d]pyrazine-9-carboxamide]	–	24000 nM
2.3 nM	O=C(NCc1cccc(Cl)c1F)c1cn2c(c(O)c1=O)C(=O)N1C[C@H]3CCC[C@@]1(C3)C2 [Compound 8]	–	5300 nM
1.3 nM	O=C(NCc1c(F)cc(F)cc1F)c1cn2c(c(O)c1=O)C(=O)N1C[C@@H]3CCC[C@]1(C3)C2 [Compound 5]	–	10600 nM
1.4 nM	C[C@@]12CCC[C@]3(Cn4cc(C(=O)NCc5c(F)cc(F)cc5F)c(=O)c(O)c4C(=O)N3C1)C2 [Compound 9]	–	8660 nM
